Data on eight compounds can be found in patent US10375956B2, “Herbicidally active 2-(substituted-phenyl)-cyclopentane-1,3-dione compounds and derivatives thereof” (Syngenta Limited, priority 2013, dated 2019).

What all share (experiment): Test 1 glasshouse assay, post-emergence herbicidal activity
What all share (type): in vivo

One assay relates to Avena fatua (AVEFA). Conditions: 312 h, post-emergence (Example 1B Table 2), after 13 days, read-out: Percentage phytotoxicity AVEFA. Here is the method: (§1) Seeds of a variety of test species are sown in standard soil in pots. After cultivation for one day (pre-emergence) or after 8 days cultivation (post-emergence) under controlled conditions in a glasshouse (at 24/16° C., day/night; 14 hours light; 65% humidity), the plants are sprayed with an aqueous spray solution derived from the formulation of the “technical” (i.e. unformulated) active ingredient in acetone/water (50:50) solution containing 0.5% Tween 20 (polyoxyethylene sorbitan monolaurate, CAS Registry Number 9005-64-5). The test plants are then grown on under controlled conditions in a glasshouse (at 24/16° C., day/night; 14 hours light; 65% humidity) and watered twice daily. After 13 days for pre- or post-emergence, the test is evaluated visually, and an assessed percentage phytotoxicity score is given for each herbicidal application on each plant species (where 100%=total damage to plant; 0%=no damage to plant).
(§2) Lolium perenne (LOLPE), Alopecurus myosuroides (ALOMY), Echinochloa crus-galli (ECHCG), and Avena fatua (AVEFA); these are all grassy monocotyledonous weeds. Cool climate crop plant: Triticum aestivum (TRZAW, winter wheat).

The test system of another assay is Lolium perenne (LOLPE). Particulars: 312 h, post-emergence (Example 1B Table 2), after 13 days, read-out: Percentage phytotoxicity LOLPE. Here is the method:
as §1, §2

The subject of assay [1] is Triticum aestivum (TRZAW, winter wheat). Conditions: 312 h, post-emergence (Example 1B Table 2), after 13 days, crop plant, read-out: Percentage phytotoxicity TRZAW. Here is the method:
as §1, §2

Consider `C#CCC1CC(=O)C(c2c(F)cc(-c3ccc(Cl)cc3)cc2Cl)C1=O` (stereo not drawn) [Compound A6, 2-[2-chloro-4-(4-chlorophenyl)-6-fluorophenyl]-4-prop-2-ynylcyclopentane-1,3-dione], for which the pest or weed control at 250 g/ha turned out to be 90% with Avena fatua (AVEFA) and 80% in the assay with Lolium perenne (LOLPE). Moreover, in assay [1], the plant injury at 250 g/ha came out at 80%.
Take `C#CCC1CC(=O)C(c2c(F)cc(-c3ccc(Cl)cn3)cc2Cl)C1=O` (stereo not drawn) [Compound A8]: in the assay with Avena fatua (AVEFA), the pest or weed control at 62.5 g/ha was 90% and the pest or weed control at 250 g/ha is 100%. For the same compound, in the assay on Lolium perenne (LOLPE), the pest or weed control at 62.5 g/ha was 70% and the pest or weed control at 250 g/ha is 100%. In addition, in assay [1], the plant injury at 62.5 g/ha worked out at 80% and the plant injury at 250 g/ha turned out to be 80%.
As for `C#CCC1CC(=O)C(c2c(C)cc(C)cc2C)C1=O` (stereo not drawn) [Compound A23], in the assay on Avena fatua (AVEFA), the pest or weed control at 62.5 g/ha came to 90% and the pest or weed control at 250 g/ha is 90%. For the same compound, in the assay on Lolium perenne (LOLPE), the pest or weed control at 62.5 g/ha amounted to 90% and the pest or weed control at 250 g/ha was 100%. In addition, in assay [1], the plant injury at 62.5 g/ha is 50% and the plant injury at 250 g/ha is 70%.
With `C#CCC1CC(=O)C(c2c(Cl)cc(-c3ccc(Cl)cn3)cc2OC)C1=O` (stereo not drawn) [Compound A10], in the assay with Avena fatua (AVEFA), the pest or weed control at 62.5 g/ha worked out at 100% and the pest or weed control at 250 g/ha amounted to 100%. Moreover, in the assay on Lolium perenne (LOLPE), the pest or weed control at 62.5 g/ha is 100% and the pest or weed control at 250 g/ha was found to be 100%. Further, in assay [1], the plant injury at 62.5 g/ha worked out at 90% and the plant injury at 250 g/ha turned out to be 90%.
Take `C#CCC1CC(=O)C(c2c(C)cc(-c3ncc(Cl)cc3F)cc2C)C1=O` (stereo not drawn) [Compound A3]: in the assay with Avena fatua (AVEFA), the pest or weed control at 62.5 g/ha came out at 90% and the pest or weed control at 250 g/ha stood at 100%. In the assay on Lolium perenne (LOLPE), the pest or weed control at 62.5 g/ha stood at 100% and the pest or weed control at 250 g/ha is 100%. In assay [1], the plant injury at 62.5 g/ha amounted to 90% and the plant injury at 250 g/ha was 90%.
As for `C#CCC1CC(=O)C(c2c(CC)cc(C)cc2CC)C1=O` (stereo not drawn) [Compound A25, 2-(2,6-diethyl-4-methyl-phenyl)-4-(prop-2-ynyl)-cyclopentane-1,3-dione], in the assay on Avena fatua (AVEFA), the pest or weed control at 62.5 g/ha was found to be 100% and the pest or weed control at 250 g/ha came out at 100%. Besides, in the assay with Lolium perenne (LOLPE), the pest or weed control at 62.5 g/ha is 100% and the pest or weed control at 250 g/ha worked out at 100%. Also, in assay [1], the plant injury at 62.5 g/ha was 30% and the plant injury at 250 g/ha was determined as 60%.
Regarding `C#CCC1CC(=O)C(c2c(Cl)cc(-c3ccc(F)c(F)c3)cc2OC)C1=O` (stereo not drawn) [Compound A13], in the assay on Avena fatua (AVEFA), the pest or weed control at 62.5 g/ha is 100% and the pest or weed control at 250 g/ha is 100%. Further, in the assay on Lolium perenne (LOLPE), the pest or weed control at 62.5 g/ha was 90% and the pest or weed control at 250 g/ha was 100%. Also, in assay [1], the plant injury at 62.5 g/ha is 80% and the plant injury at 250 g/ha came to 80%.
In the case of `C#CCC1C(=O)C(c2c(C)cc(C)cc2C)C(=O)C1CC#C` (stereo not drawn) [Compound A42], the pest or weed control at 250 g/ha with Avena fatua (AVEFA) turned out to be 80%; in the assay on Lolium perenne (LOLPE), 100%. Moreover, the plant injury at 250 g/ha in assay [1] came out at 20%.
